Experimental data reported in publication PMC3414753, “Oleamide activates peroxisome proliferator-activated receptor gamma (PPARγ) in vitro” (2012).

Assays:
PPARγ = molecular target: T1, PPARγ (Homo sapiens, UniProt P37231); assay: biochemical; assay type: binding
T1 construct: gene PPARG
T1 sequence (P37231 232-505 limits assumed): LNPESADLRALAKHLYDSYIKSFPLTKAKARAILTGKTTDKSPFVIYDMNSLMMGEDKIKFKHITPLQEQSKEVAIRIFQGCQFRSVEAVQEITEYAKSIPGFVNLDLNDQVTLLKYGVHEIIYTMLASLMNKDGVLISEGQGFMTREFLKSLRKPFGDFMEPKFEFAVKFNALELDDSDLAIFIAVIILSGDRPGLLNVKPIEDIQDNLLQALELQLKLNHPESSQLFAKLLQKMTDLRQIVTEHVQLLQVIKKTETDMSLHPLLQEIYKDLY

PPARα = molecular target: T2, PPARα (Homo sapiens, UniProt Q07869); assay: LanthaScreen TR-FRET competitive binding assay; displacement incomplete at […]
T2 construct: gene PPARA
T2 sequence (Q07869 196-468 limits assumed): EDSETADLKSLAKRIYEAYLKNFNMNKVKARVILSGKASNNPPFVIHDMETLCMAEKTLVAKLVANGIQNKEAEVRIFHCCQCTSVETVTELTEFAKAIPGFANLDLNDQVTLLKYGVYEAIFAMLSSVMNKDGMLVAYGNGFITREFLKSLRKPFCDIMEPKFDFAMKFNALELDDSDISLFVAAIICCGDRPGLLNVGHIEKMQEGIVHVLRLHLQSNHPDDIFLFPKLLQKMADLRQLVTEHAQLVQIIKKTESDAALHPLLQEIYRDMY

PPARβ = molecular target: T3, PPARβ (Homo sapiens, UniProt Q03181); assay: as above
T3 construct: gene PPARD
T3 sequence (Q03181 171-441 limits assumed): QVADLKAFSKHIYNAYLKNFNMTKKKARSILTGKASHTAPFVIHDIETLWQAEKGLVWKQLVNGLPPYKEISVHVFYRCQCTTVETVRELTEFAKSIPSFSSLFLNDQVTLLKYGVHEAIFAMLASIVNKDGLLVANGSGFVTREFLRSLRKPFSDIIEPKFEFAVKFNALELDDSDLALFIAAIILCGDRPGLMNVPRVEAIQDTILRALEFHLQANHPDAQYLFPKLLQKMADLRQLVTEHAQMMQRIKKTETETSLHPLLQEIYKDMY

## CCCCCCCC/C=C\CCCCCCCC(N)=O [ODA, (Z)-octadec-9-enamide]
PPARγ
  IC50: ~38 µM
PPARα
  LanthaScreen TR-FRET competitive binding assay; displacement incomplete at 100 μ: ODA evoked concentration-dependent displacement of fluorescent ligand from each receptor binding site, displacement at PPARα and PPARβ was incomplete
PPARβ
  LanthaScreen TR-FRET competitive binding assay; displacement incomplete at 100 μ: ODA evoked concentration-dependent displacement of fluorescent ligand from each receptor binding site, displacement at PPARα and PPARβ was incomplete
